Values quoted from earlier work in PMC9065038 (Scientific Reports, 2022).

Assays:
[1] = constipation, respiratory depression
[2] = set-up: method as in PMID 28635181; conditions: rats
[3] = in vivo
[4] = in vivo; remark: listed apart in the source
[5] = biological target: NOP receptor (S346, S351, T362/S363) (Homo sapiens, UniProt P41146)
NOP receptor (S346, S351, T362/S363), sequence (P41146 whole entry): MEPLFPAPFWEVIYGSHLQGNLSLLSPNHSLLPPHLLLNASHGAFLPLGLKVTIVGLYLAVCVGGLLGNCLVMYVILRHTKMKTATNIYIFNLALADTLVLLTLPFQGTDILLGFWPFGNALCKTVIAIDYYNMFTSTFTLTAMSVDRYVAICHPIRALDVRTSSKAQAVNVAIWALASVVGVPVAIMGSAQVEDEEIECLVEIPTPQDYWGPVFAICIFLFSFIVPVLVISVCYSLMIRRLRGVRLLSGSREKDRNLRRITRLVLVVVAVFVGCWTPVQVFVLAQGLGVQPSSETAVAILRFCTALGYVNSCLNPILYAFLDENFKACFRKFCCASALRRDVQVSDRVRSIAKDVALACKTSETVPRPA

COc1ccsc1CNCC[C@@]1(c2ccccn2)CCOC2(CCCC2)C1 [TRV130]
side-effects in clinical trials [1]: failed to produce therapeutic results devoid of side-effects

CCC1C(=O)N(C2CCN(CCC(c3ccccc3)c3ccccc3)CC2)c2ccccc21 (stereo not drawn) [AT-034]
cocaine self-administration [2]: significantly reduce cocaine self-administration

CC(C)[C@H]1CC[C@@H](N2CCC3(CC2)C(=O)N(CCNS(N)(=O)=O)Cc2ccccc23)CC1 [AT-121]
anti-nociceptive and anti-hyperalgesic effects [3]: potent anti-nociceptive and anti-hyperalgesic effects | reinforcing effects or physical dependence [4]: devoid of reinforcing effects or physical dependence | tolerance development [4]: significantly lower tolerance development

buprenorphine
NOP phosphorylation profile (in words) [5]: none at NOP
